According to the METLIN SMRT retention time set (Domingo-Almenara et al. 2019):

Experiment: gradient 5% acetonitrile 3 min, to 50% in 2 min, to 85% in 15 min, held 3 min, 100 µL/min
Settings: column: Zorbax Extend-C18 2.1 x 50 mm; eluents: water / acetonitrile, 0.1% formic acid
Summary of the method: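 A Zorbax Extend-C18 column (2.1 × 50 mm, 1.8 μm) run at 100 μL/min with water and acetonitrile, both containing 0.1% formic acid, separated mixtures of ~100 pure standards. The HPLC was coupled to a quadrupole time-of-flight mass spectrometer operated in positive and negative ionization mode, with dead and dwell volumes of 40 μL and 900 μL. Each retention time was taken from a computationally picked adduct peak that was then manually inspected.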

RP-LC retention time	Structure (SMILES)
670 s	CCCOc1ccc(N2CCN(C(=O)c3cc(Cl)ccc3OC)CC2)nn1
1010 s	CC1(C(=O)NCc2ccc(F)cc2)CCN(S(=O)(=O)c2ccc(Br)s2)CC1
905 s	Fc1ccc(Cc2nc3nccc(-c4ccsc4)n3n2)cc1
614 s	Cc1nc(C)c(CCNC(=O)c2ccc(C)c([N+](=O)[O-])c2)s1
732 s	Cc1noc(C)c1CC(=O)N1CCc2ccccc2[C@H]1C
608 s	O=C(Cc1cccs1)NC1CCN(c2cc(N3CCCC3)cnn2)C1 (stereo not given)
671 s	COc1ccc(-c2cc3c(=O)n(Cc4noc(CN(C)C5CCCCC5)n4)ccn3n2)cc1
619 s	O=C(NCC1CC1)c1cccc(N2CCNC(c3ccccc3)C2)n1 (stereo not given)
1030 s	Cc1cc(C)cc(NC(=O)Nc2nccn(-c3cccc(F)c3)c2=O)c1
852 s	CCOc1cccc(CN2CCc3nc(N4CCN(c5ccccc5F)CC4)ncc3C2)c1
1040 s	Cc1sc(NC(=O)C2CCCCC2)nc1-c1ccc2c(c1)N(C)C(=O)CO2
755 s	COc1ccccc1CNC(=O)C1CCc2nc(N3CCCCC3)ncc2C1 (stereo not given)
746 s	COc1ccc(NC(=O)C2CCCN(c3cnc4nccnc4c3)C2)cc1Cl (stereo not given)
982 s	COc1ccc(-c2noc(C3CC(=O)N(c4ccc(C)c(Cl)c4)C3)n2)c(OC)c1 (stereo not given)
932 s	CC(C)Cn1cc(CCNC(=O)Nc2ccc(Br)cc2)c2cccnc21
769 s	CCOC(=O)c1nc(N(CC)c2ccccc2)c2ccccc2n1
595 s	COc1ccc2c(C)cc(C)nc2n1
872 s	COCC(=O)Nc1cnc(-c2cccc(Cl)c2)nc1
796 s	CCOC(=O)c1csc(NC(=O)C2CCCN(c3cc(-n4cccn4)ncn3)C2)n1 (stereo not given)
863 s	CNS(=O)(=O)c1cccnc1Nc1ccc(F)cc1
606 s	CCN1CCN(c2ccc(-c3ccc(OC)c(S(=O)(=O)N4CCCC4)c3)nn2)CC1
715 s	Cc1ccsc1CN1CC(Oc2ccc(-c3noc(-c4ccncc4)n3)cc2)C1
1050 s	CCCn1c(=O)c(C)nc2cc(-c3noc(C4CC(=O)N(c5ccc(C)c(C)c5)C4)n3)ccc21 (stereo not given)

RP-LC retention time	Structure (SMILES)
842 s	Cc1cc(C)cc(NC(=O)N2CCC3(CC2)NC(=O)c2ccccc2O3)c1
710 s	Cc1cccc(C)c1OCC(O)Cn1c(C2CC2)nc2ccccc21 (stereo not given)
591 s	O=C(NCc1ccc(F)cc1)N1CCC(Nc2cccnc2)C1 (stereo not given)
679 s	CC(C)CNC(=O)N1CCCC(c2nc(C(C)C)no2)CCNC(=O)CC1 (stereo not given)
570 s	O=C(NCCCn1cccn1)c1cn2ccccc2n1
869 s	CCC(=O)Nc1cccc(-c2noc(C3CCN(C(=O)CCc4c[nH]c5ccccc45)CC3)n2)c1
918 s	CC(=O)c1cccc(NC(=O)N2CCc3cc(-c4ccc(C(=O)N5CCOCC5)cc4)ccc32)c1
735 s	CCC(=O)N1CCCn2nc(-c3cccc(F)c3)cc2C1
727 s	Cc1cc(NC(=O)CSc2nnc(NC(=O)c3ccc4c(c3)OCO4)s2)no1
853 s	O=c1n(Cc2ccccc2Cl)nc2c(S(=O)(=O)N3CCCC3)cccn12
734 s	CCc1ccc(NC(=O)C2CCN(S(=O)(=O)c3cn(C)cn3)CC2)cc1
986 s	COc1ccc(C)cc1NC(=O)C(C)C1CCN(C(=O)Nc2ccc(Cl)cc2)CC1 (stereo not given)
687 s	COc1ccc(NC(=O)N2C[C@@H](F)C[C@H]2C(=O)N2CCCCC2)c(OC)c1
743 s	Cc1c(Cl)cccc1NC(=O)N1CCC(OC2CCN(S(C)(=O)=O)CC2)CC1
1060 s	Cc1nc(-c2ccccc2)nc2c1CCC(=O)N2C(C)C
753 s	O=C(Nc1ccccc1)C1CCCN(c2nnc3ccc(Cl)cn23)C1 (stereo not given)
908 s	CCCS(=O)(=O)N1CCCc2cc(NC(=O)Nc3cccc(OC)c3OC)ccc21
1140 s	O=C(Nc1ccccc1)C1CCCN(S(=O)(=O)c2cc(-c3noc(C4CCC4)n3)cs2)C1 (stereo not given)
605 s	Cc1cnc(-c2ccncc2)n1C1CCN(S(=O)(=O)c2ccc3c(c2)CCC3)C1 (stereo not given)
764 s	CCC(C)OC(=O)c1[nH]c2c(c1C)C(=O)CC(c1ccc(N(C)C)cc1)C2 (stereo not given)
1020 s	COc1cc(-c2noc(CN3C(=O)COc4cc(Cl)ccc43)n2)cc(OC)c1OC
765 s	O=C(NCCc1cccs1)C1CCN(c2cnn(Cc3ccccc3)c(=O)c2)CC1
772 s	CCOC(=O)c1cccc(NC(=O)c2c(OCC)cc(=O)n3c2CCCC3)c1

RP-LC retention time	Structure (SMILES)
655 s	CN(C)S(=O)(=O)c1ccc(-c2nnc(C(=O)NCCCN3CCCC3=O)o2)cc1
773 s	CCn1ccc2sc(C)c(C(=O)N3CCN(c4ccccc4)CC3)c2c1=O
1270 s	CCc1ccc(S(=O)(=O)c2cnc(N3CCN(c4cccc(Cl)c4)CC3)nc2N)cc1
658 s	COc1ccc(S(=O)(=O)N2CCC(C(=O)Nc3nnc(C4CCCO4)o3)CC2)cc1 (stereo not given)
949 s	COc1ccc(NC(=O)Cn2nc(N3CCSCC3)c3ccccc3c2=O)cc1Cl
831 s	COc1ccc(CCNC(=O)CN2C(=O)CSc3cccn3-c3ccccc32)cc1OC
864 s	O=C(NCc1ccc(F)cc1)C1=C2CCCN2c2ccc(F)cc2S1(=O)=O
719 s	Cc1cc(C)n2nc(SCC(=O)NCCc3ccc(Cl)cc3)nc2n1
689 s	COCCc1noc([C@@H]2CC(F)(F)CN2C(=O)c2ocnc2C)n1
1040 s	CCOc1ccc(CNC(=O)C2CCCN(S(=O)(=O)c3ccc4c(ccn4CC)c3)C2)cc1 (stereo not given)
799 s	Cc1oc(-c2[nH]ncc2C(=O)N2CCCC2)cc1S(=O)(=O)NCCCc1ccccc1
1160 s	Cc1ccc(-c2noc(-c3nc(C4CC4)no3)n2)cc1
1120 s	CCc1ccc(-c2ccc(=O)n(CCc3nc(-c4ccc(F)cc4)no3)n2)cc1
703 s	COc1ccc(NC(=O)Cn2c(C(C)C)nc3c(c2=O)CCN(Cc2ccccc2)C3)c(OC)c1
735 s	COc1ccc(NC(=O)CSc2nccc(N3CCN(c4cccc(OC)c4)CC3)n2)cc1
725 s	CC(C)CC(NC(=O)c1ccccc1)C(=O)Nc1nc2ccccc2[nH]1 (stereo not given)
885 s	CN(C)CCCN1c2ccccc2Sc2ccc(C(F)(F)F)cc21
705 s	Cc1cc(C)n2nc(SCC(=O)NCc3ccccc3)nc2n1
873 s	O=C(CSc1ccc(N2CCN(c3ccc(F)cc3)CC2)nn1)NCc1ccco1
909 s	Cc1ccc(N2CCC(NC(=O)Nc3cccc(Cl)c3C)C2=O)cc1 (stereo not given)
835 s	CC(C(=O)N1CCN(c2ccccn2)CC1)n1nc(-c2ccccc2)c2cc(Cl)ccc21 (stereo not given)
719 s	COc1ccc(-c2nc3ccccn3c2Nc2ccc3c(c2)OCCO3)cc1
792 s	COC(=O)CNC(=O)NC(C(=O)N1CCc2ccccc21)c1ccccc1 (stereo not given)

RP-LC retention time	Structure (SMILES)
673 s	CCOC(=O)N1CCN(C(=O)Cn2nc(-c3ccccc3)cc(N)c2=O)CC1
824 s	O=C(Nc1cccc(Br)c1)C1CC(=O)N(c2n[nH]c3cccc(F)c23)C1 (stereo not given)
946 s	O=C(c1cccn1Cc1noc(C2CC2)n1)N1CCN(c2ccccc2)CC1
638 s	CCN(CC)c1cc(CNC(=O)Nc2cc(Cl)c(OC)cc2OC)ccn1
860 s	CN1c2cc(C(=O)NCc3ccc(F)c(Cl)c3)ccc2C(=O)N2CCCCC21 (stereo not given)
886 s	COc1ccc(OC)c(N2CC(c3nc(-c4ccc5c(c4)OCO5)no3)CC2=O)c1 (stereo not given)
737 s	CC(C)NC(=O)c1cc(=O)[nH]c2c(Cl)cccc12
846 s	CC1=C(c2ccccc2)S(=O)(=O)N=C1N1CCCN(C(=O)c2cc(F)cc(F)c2)CC1
936 s	COC(=O)c1nnn(-c2ccccc2C(F)(F)F)c1N
626 s	CN(C)CCN1C(=O)c2cccc3cc(N)cc(c23)C1=O
876 s	COCCCn1c(=O)c2ccccc2n(Cc2nc(-c3ccc(OC)c(OC)c3)no2)c1=O
1000 s	O=C1CC(c2nc(-c3cccc(Cl)c3)no2)CN1c1ccc2c(c1)OCCO2 (stereo not given)
847 s	O=c1n(Cc2cccc(C(F)(F)F)c2)nc2c(S(=O)(=O)N3CCOCC3)cccn12
773 s	Cc1cc(C2CCCN2C(=O)c2c(F)cccc2Cl)no1 (stereo not given)
1270 s	CCN(C(=O)c1cccc(OC)c1)c1nc(-c2ccccc2)cs1
671 s	COc1ccccc1N1CCN(c2nc3ccccc3cc2-c2noc(C)n2)CC1
614 s	COc1ccc(NC(=O)c2cc3c(s2)CN(C2CCCC2)C3)c(C)c1
583 s	Cc1cccc(S(=O)Cc2ccc(C(=O)NCCN3CCOCC3)o2)c1 (stereo not given)
640 s	CCC(=O)N1CCc2c(c(C(=O)N3CCC(C(=O)NCc4ccc(OC)cc4)CC3)nn2C)C1
906 s	CC(NC(=O)C1CCN(C(=O)N2CCOc3ccc(Cl)cc32)CC1)c1ccccc1 (stereo not given)

Structure (SMILES)	RP-LC retention time
CN1CC[C@]2(c3cccc(O)c3)Cc3nc4ccccc4cc3C[C@H]2C1	572 s
